# In patent publication US8293729B2 (Boehringer Ingelheim International GmbH, priority 2009, dated 2012):
# Target: T1, human GPR119 receptor (Homo sapiens, UniProt Q8TDV5, S329A/T327A)
# T1 construct: N-terminal leader […]; expressed in transfected cells
# T1 sequence (Q8TDV5 with tags, fused parts or gaps T327A/S329A): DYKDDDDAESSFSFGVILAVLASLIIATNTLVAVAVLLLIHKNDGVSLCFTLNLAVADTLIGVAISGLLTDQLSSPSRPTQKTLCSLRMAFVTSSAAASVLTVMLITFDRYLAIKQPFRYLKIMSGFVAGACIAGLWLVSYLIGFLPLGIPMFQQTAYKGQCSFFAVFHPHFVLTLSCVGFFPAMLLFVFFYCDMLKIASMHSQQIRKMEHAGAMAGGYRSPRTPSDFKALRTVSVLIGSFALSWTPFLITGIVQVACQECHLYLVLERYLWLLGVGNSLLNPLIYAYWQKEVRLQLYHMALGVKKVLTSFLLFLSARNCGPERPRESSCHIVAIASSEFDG
# Test: cAMP assay (LANCE cAMP-384) in HEK293 cells stably expressing mutant human GPR119 receptor
# Format: cell-based
# Conditions: HEK293, 20 min; single concentration 10 μM; given where no EC50 value could be determined; read-out: % stimulation at 10 μM
# Description: Quantitative detection of cAMP accumulation from cells expressing human GPR119 receptor was achieved using Perkin Elmer's LANCE cAMP-384 Kit (Cat#AD0264) according to the manufacturer's protocol. Briefly, HEK293 cells stably expressing a mutant form of the human GPR119 receptor (Methionine 1 replaced with the amino acid sequence […] (SEQ ID NO: 1), and T327 & S329 changed to alanines) were grown to 50-70% confluency in cell culture media (DMEM, 10% heat inactivated Fetal Bovine Serum, 50 I.U./mL penicillin, 50 μg/mL streptomycin, 10 mM HEPES, 20 μg/mL G418 Sulfate). On the day of the assay, GPR119 stable HEK293 cells were lifted from the tissue culture plate and 1000 cells/well were incubated along with various concentrations of test compounds for 20 min at 37° C. Detection Buffer (50mM HEPES, 10mM calcium chloride, 0.35% Triton X-100, 1 mg/mL BSA) containing cAMP-specific antibody was then added to all wells and allowed to equilibrate in the dark for 10 minutes at room temperature. Upon equilibration, Detection Buffer containing europium-labeled cAMP tracer complex was added to all wells and allowed to react for 1 hour at room temperature. After 1 hour, bound europium-labeled cAMP tracer was measured using a Perkin Elmer ViewLux. The quantity of cAMP generated in each well was derived from a standard curve. EC50 was determined using nonlinear regression analysis of the cAMP values over a range of agonist concentration (12 points spanning the range from 30 μM to 100pM).
# For some compounds for which no EC50 value could be determined, the efficacy is provided at a single concentration (10 μM) yielding % stimulation values.
row,Compound,activation at 10 µM
1,"CC(C)OC(=O)N1CCC(ON=C2CCN(c3cc(F)c(C4=NCCN4)cc3F)CC2)CC1 [Example 19-1, 4-{1-[4-(4,5-Dihydro-1H-imidazol-2-yl)-2,5-difluoro-phenyl]-piperidin-4-ylideneaminooxy}-piperidine-1-carboxylic acid isopropyl ester]",53%
2,"CC(C)OC(=O)N1CCC(ON=C2CCN(c3cc(F)c(C(=N)N)cc3F)CC2)CC1 [Example 23-1, 4-[1-(4-Carbamimidoyl-2,5-difluoro-phenyl)-piperidin-4-ylideneaminooxy]-piperidine-1-carboxylic acid isopropyl ester]",3%
3,COc1cccc(-c2cc(F)c(N3CCC(=NOC4CCN(C(=O)OC(C)C)CC4)CC3)cc2F)n1 [Example 27-11],80%
4,CC(C)OC(=O)N1CCC(ON=C2CCN(c3cc(F)c(-c4nnn[nH]4)cc3F)CC2)CC1 [Example 27-28],86%
5,COc1ncc(-c2cc(F)c(N3CCC(=NOC4CCN(C(=O)OC(C)C)CC4)CC3)cc2F)c(OC)n1 [Example 27-31],70%

# Same assay, conditions: cAMP accumulation, HEK293 cells stably expressing mutant human GPR119; read-out: EC50
row,Compound,EC50
1,CC(=O)NCc1cc(F)c(N2CCC(=NOC3CCN(C(=O)OC(C)C)CC3)CC2)cc1F [Example 16-2],141 nM
2,CC(C)OC(=O)N1CCC(ON=C2CCN(c3cc(F)c(CNS(C)(=O)=O)cc3F)CC2)CC1 [Example 16-3],51 nM
3,CCOC(=O)NCc1cc(F)c(N2CCC(=NOC3CCN(C(=O)OC(C)C)CC3)CC2)cc1F [Example 16-4],70 nM
4,CC(C)OC(=O)N1CCC(ON=C2CCN(c3cc(F)c(CNS(=O)(=O)C(C)C)cc3F)CC2)CC1 [Example 16-5],142 nM
5,CCS(=O)(=O)NCc1cc(F)c(N2CCC(=NOC3CCN(C(=O)OC(C)C)CC3)CC2)cc1F [Example 16-6],113 nM
6,CC(C)OC(=O)NCc1cc(F)c(N2CCC(=NOC3CCN(C(=O)OC(C)C)CC3)CC2)cc1F [Example 16-7],134 nM
7,CC(C)OC(=O)N1CCC(ON=C2CCN(c3cc(F)c(CNC=O)cc3F)CC2)CC1 [Example 16-8],120 nM
8,CCOC(=O)CNC(=O)NCc1cc(F)c(N2CCC(=NOC3CCN(C(=O)OC(C)C)CC3)CC2)cc1F [Example 16-9],401 nM
9,CC(C)OC(=O)N1CCC(ON=C2CCN(c3cc(F)c(CNS(N)(=O)=O)cc3F)CC2)CC1 [Example 17-1],312 nM
10,"CC(=O)N(C)Cc1cc(F)c(N2CCC(=NOC3CCN(C(=O)OC(C)C)CC3)CC2)cc1F [Example 18-1, 4-(1-{4-[(Acetyl-methyl-amino)-methyl]-2,5-difluoro-phenyl}-piperidin-4-ylideneaminooxy)-piperidine-1-carboxylic acid isopropyl ester]",127 nM
11,CC(C)OC(=O)N1CCC(ON=C2CCN(c3cc(F)c(CN(C)S(C)(=O)=O)cc3F)CC2)CC1 [Example 18-2],150 nM
12,"CC(C)OC(=O)N1CCC(ON=C2CCN(c3cc(F)c(-c4cnco4)cc3F)CC2)CC1 [Example 20-1, 4-[1-(2,5-Difluoro-4-oxazol-5-yl-phenyl)-piperidin-4-ylideneaminooxy]-piperidine-1-carboxylic acid isopropyl ester]",100 nM
13,CC(C)OC(=O)N1CCC(ON=C2CCN(c3ccc(-c4cnco4)cc3F)CC2)CC1 [Example 20-2],498 nM
14,"CC(C)OC(=O)N1CCC(ON=C2CCN(c3cc(F)c(-n4ccnc4)cc3F)CC2)CC1 [Example 22-1, 4-[1-(2,5-Difluoro-4-imidazol-1-yl-phenyl)-piperidin-4-ylideneaminooxy]-piperidine-1-carboxylic acid isopropyl ester]",435 nM
15,CC(C)OC(=O)N1CCC(ON=C2CCN(c3cc(F)c(-n4cccc4)cc3F)CC2)CC1 [Example 22-2],767 nM
16,CC(C)OC(=O)N1CCC(ON=C2CCN(c3cc(F)c(-n4cccn4)cc3F)CC2)CC1 [Example 22-3],62 nM
17,CC(C)OC(=O)N1CCC(ON=C2CCN(c3cc(F)c(-n4cncn4)cc3F)CC2)CC1 [Example 22-4],33 nM
18,CC(C)OC(=O)N1CCC(ON=C2CCN(c3cc(F)c(N4CCCC4=O)cc3F)CC2)CC1 [Example 22-7],157 nM
19,"CC(C)OC(=O)N1CCC(ON=C2CCN(c3cc(F)c(-c4cccs4)cc3F)CC2)CC1 [Example 27-1, 4-[1-(2,5-Difluoro-4-thiophen-2-yl-phenyl)-piperidin-4-ylideneaminooxy]-piperidine-1-carboxylic acid isopropyl ester]",201 nM
20,Cc1noc(C)c1-c1cc(F)c(N2CCC(=NOC3CCN(C(=O)OC(C)C)CC3)CC2)cc1F [Example 27-2],> 10000 nM
21,CC(C)OC(=O)N1CCC(ON=C2CCN(c3cc(F)c(-c4ccoc4)cc3F)CC2)CC1 [Example 27-3],591 nM
22,CC(C)OC(=O)N1CCC(ON=C2CCN(c3cc(F)c(-c4cccnc4)cc3F)CC2)CC1 [Example 27-4],182 nM
23,CC(C)OC(=O)N1CCC(ON=C2CCN(c3cc(F)c(-c4ccncc4)cc3F)CC2)CC1 [Example 27-5],378 nM

row,Compound,EC50
1,CC(C)OC(=O)N1CCC(ON=C2CCN(c3cc(F)c(-c4cncnc4)cc3F)CC2)CC1 [Example 27-6],243 nM
2,CC(C)OC(=O)N1CCC(ON=C2CCN(c3cc(F)c(-c4ccc[nH]4)cc3F)CC2)CC1 [Example 27-7],436 nM
3,CC(C)OC(=O)N1CCC(ON=C2CCN(c3cc(F)c(-c4cc[nH]n4)cc3F)CC2)CC1 [Example 27-9],232 nM
4,CC(C)OC(=O)N1CCC(ON=C2CCN(c3cc(F)c(-c4cn[nH]c4)cc3F)CC2)CC1 [Example 27-10],177 nM
5,CC(C)OC(=O)N1CCC(ON=C2CCN(c3cc(F)c(-c4ccsc4)cc3F)CC2)CC1 [Example 27-12],245 nM
6,CC(C)OC(=O)N1CCC(ON=C2CCN(c3cc(F)c(-c4c[nH]cn4)cc3F)CC2)CC1 [Example 27-14],152 nM
7,CC(C)OC(=O)N1CCC(ON=C2CCN(c3cc(F)c(-c4cnc(N)nc4)cc3F)CC2)CC1 [Example 27-15],516 nM
8,CC(C)OC(=O)N1CCC(ON=C2CCN(c3cc(F)c(-c4nccn4C)cc3F)CC2)CC1 [Example 27-16],5550 nM
9,CC(C)OC(=O)N1CCC(ON=C2CCN(c3cc(F)c(-c4nccs4)cc3F)CC2)CC1 [Example 27-18],137 nM
10,CC(C)OC(=O)N1CCC(ON=C2CCN(c3cc(F)c(-c4cscn4)cc3F)CC2)CC1 [Example 27-19],3080 nM
11,CC(C)OC(=O)N1CCC(ON=C2CCN(c3cc(F)c(-c4ncccn4)cc3F)CC2)CC1 [Example 27-20],272 nM
12,CCc1cnc(-c2cc(F)c(N3CCC(=NOC4CCN(C(=O)OC(C)C)CC4)CC3)cc2F)nc1 [Example 27-21],509 nM
13,CC(C)OC(=O)N1CCC(ON=C2CCN(c3cc(F)c(-c4ncc[nH]4)cc3F)CC2)CC1 [Example 27-22],54 nM
14,Cc1ccc(-c2cc(F)c(N3CCC(=NOC4CCN(C(=O)OC(C)C)CC4)CC3)cc2F)s1 [Example 27-23],274 nM
15,Cc1ccsc1-c1cc(F)c(N2CCC(=NOC3CCN(C(=O)OC(C)C)CC3)CC2)cc1F [Example 27-24],329 nM
16,Cc1nc(C)c(-c2cc(F)c(N3CCC(=NOC4CCN(C(=O)OC(C)C)CC4)CC3)cc2F)s1 [Example 27-25],> 10000 nM
17,Cc1ccc(-c2cc(F)c(N3CCC(=NOC4CCN(C(=O)OC(C)C)CC4)CC3)cc2F)nc1 [Example 27-26],861 nM
18,CC(C)OC(=O)N1CCC(ON=C2CCN(c3cc(F)c(-c4ccccn4)cc3F)CC2)CC1 [Example 27-27],159 nM
19,Cc1ccc(-c2cc(F)c(N3CCC(=NOC4CCN(C(=O)OC(C)C)CC4)CC3)cc2F)cn1 [Example 27-30],435 nM
20,CC(C)OC(=O)N1CCC(ON=C2CCN(c3cc(F)c(-c4ccc5[nH]ccc5c4)cc3F)CC2)CC1 [Example 27-32],1380 nM
21,COc1ccc(-c2cc(F)c(N3CCC(=NOC4CCN(C(=O)OC(C)C)CC4)CC3)cc2F)cn1 [Example 27-33],891 nM
22,CC(C)OC(=O)N1CCC(ON=C2CCN(c3cc(F)c(-c4cnn(C)c4)cc3F)CC2)CC1 [Example 27-34],126 nM

# Same assay, conditions: the 15th table; read-out: EC50
row,Compound,EC50
1,"CC(C)OC(=O)N1CCC(ON=C2CCN(c3cc(F)c(C(=O)N(C)C)cc3F)CC2)CC1 [Example 29-1, 4-[1-(4-Dimethylcarbamoyl-2,5-difluoro-phenyl)-piperidin-4-ylideneaminooxy]-piperidine-1-carboxylic acid isopropyl ester]",129 nM
2,CC(C)OC(=O)N1CCC(ON=C2CCN(c3cc(F)c(C(=O)NCCN(C)C)cc3F)CC2)CC1 [Example 29-2],450 nM
